Results taken from doi:10.1101/2022.07.25.501471v5 (biorxiv, 2023).

How the values were obtained:
CreTPT2 (His-CreTPT2) = molecular target: T1, CreTPT2 (His-CreTPT2) (Chlamydomonas reinhardtii, UniProt A0A2K3DMX1); test: inhibition of […]Pi uptake into proteoliposomes; type: cell-based; settings: competitive; 0.25 mM external Pi, 30 mM Pi inside, competitor 0.05-5 mM, 4 min
T1 sequence (A0A2K3DMX1 71-401): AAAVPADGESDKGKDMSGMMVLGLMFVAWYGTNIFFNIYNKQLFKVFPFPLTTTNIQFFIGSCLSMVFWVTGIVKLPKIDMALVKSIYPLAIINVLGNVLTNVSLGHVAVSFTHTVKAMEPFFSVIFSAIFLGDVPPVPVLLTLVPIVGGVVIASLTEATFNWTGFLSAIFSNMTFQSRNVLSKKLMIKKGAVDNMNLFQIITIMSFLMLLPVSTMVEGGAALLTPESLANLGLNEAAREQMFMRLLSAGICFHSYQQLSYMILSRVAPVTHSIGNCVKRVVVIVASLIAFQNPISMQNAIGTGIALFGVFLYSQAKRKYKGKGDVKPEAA

CreTPT3 (His-CreTPT3) = molecular target: T2, CreTPT3 (His-CreTPT3) (Chlamydomonas reinhardtii, UniProt A8HN02); test: inhibition of […]Pi uptake into proteoliposomes; type: cell-based; settings: competitive; 0.25 mM external Pi, 30 mM Pi inside, competitor 0.05-5 mM, 4 min
T2 sequence (A8HN02 61-406): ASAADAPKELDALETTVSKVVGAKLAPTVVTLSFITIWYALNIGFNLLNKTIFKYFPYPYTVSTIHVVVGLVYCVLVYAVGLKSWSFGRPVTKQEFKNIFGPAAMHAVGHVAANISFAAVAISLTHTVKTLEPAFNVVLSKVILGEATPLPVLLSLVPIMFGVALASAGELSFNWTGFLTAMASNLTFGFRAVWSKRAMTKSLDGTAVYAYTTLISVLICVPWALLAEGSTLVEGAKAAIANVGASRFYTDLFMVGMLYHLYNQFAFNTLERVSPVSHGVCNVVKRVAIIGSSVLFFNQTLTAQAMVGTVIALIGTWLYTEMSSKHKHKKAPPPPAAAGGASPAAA

SMILES | Ki (CreTPT2 (His-CreTPT2)) [µM] | Ki (CreTPT3 (His-CreTPT3)) [µM]
O=C(O)[C@H](O)COP(=O)(O)O [3-PGA] | 780 ± 190 | 790 ± 122
O=C(CO)COP(=O)(O)O [DHAP] | 710 ± 120 | 570 ± 13
